Data on 8 compounds can be found in patent US8283373B2, “Inhibitors of cytosolic phospholipase A2” (Pfizer Inc., priority 2005, dated 2012).

For one assay, the system named is TXB2. In words: Rat Whole Blood Assay (A23187-stimulated TXB2). In kind it is cell-based. Conditions: Rattus norvegicus; A23187 5 μM. As to the method:
Fresh blood was collected in heparinized tubes by cardiac puncture of male Sprague-Dawley rats. Aliquots of blood (0.6 mL) were incubated with either 6 μL solvent (DMSO), or 6 μL of test compounds at various concentrations for 15 minutes at 37° C. This was followed by incubation of the blood with 6 μL of calcium ionophore, A23187 (Sigma C-7522) diluted in DMSO for 10 min at 37° C. The final concentration of A23187 was 5 μM. DMSO (6 μL) was added in the unstimulated controls. The reactions were stopped by mixing 60 μL cold EDTA to give a final concentration of 20 mM. The blood was centrifuged at 6,500 rpm for 10 min on a microcentrifuge to obtain plasma. A 70 μL aliquot of plasma was mixed with 400 μL cold methanol for protein precipitation. After incubation at −80° C. for 30 min, the supernatant was obtained by centrifuging at 6,500 rpm for 10 min, and was assayed for TXB2 according to the manufacturer's procedure (Assay Designs, Inc.'s ELISA kit #900-002).

For the next assay, the target named is T1, cPLA2α (Homo sapiens, UniProt P47712).
T1 sequence (P47712 1-749): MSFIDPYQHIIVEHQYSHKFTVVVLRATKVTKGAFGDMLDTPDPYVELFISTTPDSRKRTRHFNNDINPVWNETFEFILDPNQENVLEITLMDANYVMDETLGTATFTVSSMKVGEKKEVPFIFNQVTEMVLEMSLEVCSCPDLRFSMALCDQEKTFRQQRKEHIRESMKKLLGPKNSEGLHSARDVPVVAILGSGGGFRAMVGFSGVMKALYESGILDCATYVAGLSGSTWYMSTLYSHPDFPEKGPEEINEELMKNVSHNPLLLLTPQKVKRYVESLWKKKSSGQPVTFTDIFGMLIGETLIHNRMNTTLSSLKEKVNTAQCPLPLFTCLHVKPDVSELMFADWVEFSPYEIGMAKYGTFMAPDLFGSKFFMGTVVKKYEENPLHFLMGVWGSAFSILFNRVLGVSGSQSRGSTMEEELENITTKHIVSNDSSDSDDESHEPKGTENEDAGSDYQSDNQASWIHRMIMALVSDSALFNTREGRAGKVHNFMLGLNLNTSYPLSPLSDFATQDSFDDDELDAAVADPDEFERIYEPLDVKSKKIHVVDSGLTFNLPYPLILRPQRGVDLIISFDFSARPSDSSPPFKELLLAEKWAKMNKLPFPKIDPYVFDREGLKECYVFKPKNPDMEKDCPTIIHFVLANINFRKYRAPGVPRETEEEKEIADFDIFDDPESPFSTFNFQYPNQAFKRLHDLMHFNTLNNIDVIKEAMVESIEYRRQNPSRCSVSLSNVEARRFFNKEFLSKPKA
In words: GLU Micelle Assay. Type of assay: biochemical. As for the experimental part: The assay was carried in a 96-well format using a fluorescent plate reader with a 355 nm excitation filter and a 460 nm emission filter (Lab Systems Fluoroscan II, Helsinki, Finland). The assay buffer contained 940 μM Triton X-100, 50 mM Hepes pH 7.4, 0.3 mM EDTA, 1 mM CaCl2 and 300 mM KCl. DTPC (1,2-O-tetradecyl-sn-glycero-3-phosphocholine, Avanti) at a final concentration of 120 μM was added the day of the experiment and GLU (7-Hydroxycoumarinyl-γ-linolenate, Biomol Research Lab, Inc.) at a final concentration of 90 μM was added immediately prior to each assay.
Compounds (10 μL) dissolved in DMSO were placed in duplicate wells of a black 96-well plate. Wells corresponding to the positive and negative controls contained DMSO without inhibitors. Just prior to the experiment, 200 μL assay buffer containing 90 μM GLU and 120 μM DTPC was added to all wells in the assay plate. Assay buffer (50 μL) was added to the negative, and 50 μL cPLA2α solution ([…] in assay buffer) was added to all other wells to initiate the reaction. The final concentration of enzyme was 1 μg/ml. The content of each well was mixed gently during the addition of the enzyme, and the plate was rapidly transferred to the fluorescent plate reader. The increase in fluorescence was read every 4 min for 84 min. The slope of the resulting line was determined and the inhibition was calculated using the equation below: Percent Inhibition=[1−(slope with inhibitor−slope negative control)/(slope positive control−slope negative control)]×100 Rat Whole Blood Assay

Assay [1] deals with primary cerebellar granule neurons. Briefly: Oxygen-glucose deprivation (OGD) in cultured cerebellar granule neurons. Type of assay: cell-based, rat. The conditions noted are these: for percent cell death (lactate dehydrogenase release), Avg.: OGD 2 hours, control 14, OGD 51. As for the experimental part: Primary cerebellar granule neurons were isolated from P5-8 rat pups. Briefly, cerebelli were collected and pooled in ice-cold phosphate buffer saline (PBS) without Ca^2+ and Mg^2+. The tissue was finely chopped and transferred to an enzymatic dissociation media containing 20 IU/ml papain in Earle's balanced salt solution (Worthington Biochemical, Freehold, N.J.) and incubated for 30 minutes at 37° C. After enzymatic dissociation, the papain solution was aspirated and the tissue mechanically triturated with a fire-polished Pasteur pipette in complete media [Neurobasal Medium with B-27 supplement (Gibco, Grand Island, N.Y.), penicillin/streptomycin, aphidicolin, glutamate, potassium chloride] containing 2,000 IU/ml DNase and 10 mg/ml ovomucoid protease inhibitor. Single-cell suspensions in complete media were plated on pre-coated poly-L-ornithine/laminin 24-well plates (Becton-Dickinson, Bedford, Mass.) at a density of
5.0×10^5 cells/well. Cells were maintained for two weeks prior to experimentation.
Cultures were treated with Compound A at various concentrations, 60 minutes before OGD. Media was removed and replaced with deoxygenated buffer in an anaerobic chamber (80% nitrogen, 10% hydrogen, 10% carbon dioxide gas mixture). Fresh Compound A, Example 34 or Example 41 was added to the cultures and maintained in the anaerobic chamber for 2 hours. At the end of the incubation, fresh media was exchanged and fresh Compound A was added. Cultures were maintained for an additional 24 hours in a normoxic incubator. Cell death was determined by measuring lactate dehydrogenase release into the media 24 hours later (Roche Biochemicals). In the table below, values are shown for the control, OGD, various concentrations of Compound A, and MK801, a NMDA receptor antagonist, which is a positive control.

As for `O=C(O)c1ccc(CCCc2c(CCNS(=O)(=O)Cc3ccccc3-c3cccc4cccnc34)n(C(c3ccccc3)c3ccccc3)c3ccc(Cl)cc23)cc1` [Example 34, 4-{3-[5-chloro-1-(diphenylmethyl)-2-(2-{[(2-quinolin-8-ylbenzyl)sulfonyl]amino}ethyl)-1H-indol-3-yl]propyl}benzoic acid], the values for the IC50 in the assay on TXB2 and against cPLA2α were 30 nM and 16 nM, respectively. In assay [1], the “protection of cultured neurons from OGD-induced cell death” value is listed as “effective in protecting cultured neurons from OGD-induced cell death”. The “percent cell death (lactate dehydrogenase release), Avg.” value in assay [1] (0.1 μM) came to 35%; in assay [1] (0.3 μM) it was 28%; in assay [1] (1 μM), 21%; in assay [1] (3 μM) it was 18%.

Regarding `O=C(O)c1ccc(CCCc2c(CCNS(=O)(=O)Cc3ccccc3-c3cccc4ncccc34)n(C(c3ccccc3)c3ccccc3)c3ccc(Cl)cc23)cc1` [Example 41, 4-{3-[5-chloro-1-(diphenylmethyl)-2-(2-{[(2-quinolin-5-ylbenzyl)sulfonyl]amino}ethyl)-1H-indol-3-yl]propyl}benzoic acid], the IC50 (commonly the point on the concentration scale where inhibition reaches its midpoint) at cPLA2α was 22 nM. In addition, the “protection of cultured neurons from OGD-induced cell death” value in assay [1] is listed as “effective in protecting cultured neurons from OGD-induced cell death”. The “percent cell death (lactate dehydrogenase release), Avg.” value in assay [1] (0.1 μM) is 40%; in assay [1] (0.3 μM), 33%; in assay [1] (1 μM), 30%; in assay [1] (3 μM) it was 24%.

Take `CCN(CC)Cc1ccccc1CS(=O)(=O)NCCc1c(CCCc2ccc(C(=O)O)cc2)c2cc(Cl)ccc2n1C(c1ccccc1)c1ccccc1` [Example 18, 4-{3-[5-chloro-2-{2-[({2-[(diethylamino)methyl]benzyl}sulfonyl)amino]ethyl}-1-(diphenylmethyl)-1H-indol-3-yl]propyl}benzoic acid]: the IC50 in the assay with TXB2 is 40 nM; against cPLA2α, 25 nM.

Consider `CN(CCc1c(CCCc2ccc(C(=O)O)cc2)c2cc(Cl)ccc2n1C(c1ccccc1)c1ccccc1)S(=O)(=O)Cc1ccccc1C(F)(F)F` [Example 11, 4-(3-{5-chloro-1-(diphenylmethyl)-2-[2-(methyl{[2-(trifluoromethyl)benzyl]sulfonyl}amino)ethyl]-1H-indol-3-yl}propyl)benzoic acid], for which the figures for the half-maximal inhibitory concentration (IC50) with TXB2 and at cPLA2α were 380 nM and 280 nM, respectively.

Consider `O=C(O)c1ccc(CCCc2c(CCNS(=O)(=O)Cc3c([N+](=O)[O-])cccc3C(F)(F)F)n(C(c3ccccc3)c3ccccc3)c3ccc(Cl)cc23)cc1` [Example 27, 4-(3-{5-chloro-1-(diphenylmethyl)-2-[2-({[2-nitro-6-(trifluoromethyl)benzyl]sulfonyl}amino)ethyl]-1H-indol-3-yl}propyl)benzoic acid], for which the IC50 with TXB2 is 30 nM; against cPLA2α, 38 nM.

Consider `O=C(O)c1ccc(CCCc2c(CCNS(=O)(=O)Cc3c(C(F)(F)F)cccc3C(F)(F)F)n(C(c3ccccc3)c3ccccc3)c3ccc(Cl)cc23)cc1` [Example 12, 4-{3-[2-[2-({[2,6-bis(trifluoromethyl)benzyl]sulfonyl}amino)ethyl]-5-chloro-1-(diphenylmethyl)-1H-indol-3-yl]propyl}benzoic acid], for which the half-maximal inhibitory concentration (IC50) stood at 40 nM in the assay on TXB2 and 21 nM on cPLA2α.

With `CC(c1ccccc1C(F)(F)F)S(=O)(=O)NCCc1c(CCCc2ccc(C(=O)O)cc2)c2cc(Cl)ccc2n1C(c1ccccc1)c1ccccc1` (stereo not shown) [Example 23, 4-[3-(5-chloro-1-(diphenylmethyl)-2-{2-[({1-[2-(trifluoromethyl)phenyl]ethyl}sulfonyl)amino]ethyl}-1H-indol-3-yl)propyl]benzoic acid], the IC50 in the assay with TXB2 is 40 nM; against cPLA2α, 105 nM.

Take `O=C(O)c1ccc(CCCc2c(CCNS(=O)(=O)Cc3ccccc3-c3ccncc3)n(C(c3ccccc3)c3ccccc3)c3ccc(Cl)cc23)cc1` [Example 30, 4-{3-[5-chloro-1-(diphenylmethyl)-2-(2-{[(2-pyridin-4-ylbenzyl)sulfonyl]amino}ethyl)-1H-indol-3-yl]propyl}benzoic acid]: the IC50 in the assay on TXB2 turned out to be 60 nM; at cPLA2α it was 21 nM.
